The record followed here is BindingDB's records for patent US20250340565 (AdoRx Therapeutics, 2025).

For orientation: IC50 means the point on the concentration scale where inhibition reaches its midpoint.

The assay has as its target T1, 5'-nucleotidase [27-547] (UniProt P21589).
T1 construct: 27-547
T1 sequence (P21589 whole entry): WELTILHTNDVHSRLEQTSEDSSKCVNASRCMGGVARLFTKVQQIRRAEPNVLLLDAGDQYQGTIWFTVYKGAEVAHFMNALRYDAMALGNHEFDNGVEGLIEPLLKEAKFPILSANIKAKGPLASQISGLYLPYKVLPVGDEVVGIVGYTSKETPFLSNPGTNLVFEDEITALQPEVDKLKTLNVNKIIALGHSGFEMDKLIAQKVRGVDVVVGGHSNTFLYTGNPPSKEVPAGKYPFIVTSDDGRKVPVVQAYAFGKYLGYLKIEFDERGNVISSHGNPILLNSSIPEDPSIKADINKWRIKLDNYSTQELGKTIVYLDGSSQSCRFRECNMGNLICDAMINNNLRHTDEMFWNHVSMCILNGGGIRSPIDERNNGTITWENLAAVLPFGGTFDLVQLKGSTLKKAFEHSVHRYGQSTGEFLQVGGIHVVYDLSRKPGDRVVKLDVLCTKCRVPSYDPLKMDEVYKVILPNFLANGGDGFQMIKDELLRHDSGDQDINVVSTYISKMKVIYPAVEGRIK
Put plainly: CD73 Inhibition Assay. As for the experimental part: Compound inhibition of human (h)CD73 (amino acids Trp27-Lys547, R&D Systems 5795-EN-500) enzymatic activity was tested via the Malachite Green Phosphate Detection Kit (R&D DY996). Experiments were performed in 20 μL Tris buffer (25 mM Tris pH 7.5, 5 mM MgCl2, 0.002% Tween20), with 250 pM of hCD73. Test compounds of interest were prepared in a threefold serial dilution in DMSO and added to the assay to give the appropriate final concentration, with the assay DMSO concentration being 1%. Compounds were pre-incubated for 20 minutes with hCD73 in a 384 well clear plate (Greiner 781101), followed by the addition of adenosine monophosphate (AMP) to 12.5 μM. The enzymatic reaction was carried out for 20 min at room temperature. 5 μL of Malachite kit reagent A was added to stop the reaction (contains 3M H2SO4) and after 10 min, 5 μL of Malachite kit reagent B was added (Malachite Green). After 30 min, absorbance at 620 nm was read on a BMG Pherastar FSX.

`O=c1[nH]cc(-n2cc3c(N4C[C@@H]5COC[C@H]5C4)ncnc3n2)c(=O)[nH]1` [US20250340565, Example 13.10] came in with a 50% inhibitory concentration (IC50) of 0.898 µM.
